Laboratory results: US20240122930A1, “INTEGRIN INHIBITORS AND USES THEREOF IN COMBINATION WITH OTHER AGENTS” (Pliant Therapeutics, Inc., priority 2022, published 2024)

Legend:
[1] = tested on: IPF-derived human lung fibroblasts; assay: LAP adhesion assay, IPF-derived human lung fibroblasts (xCELLigence); type: cell-based; details: adhesion to LAP, FIG. 3B
Experimental: Two latency associated peptide (LAP) adhesion binding assays were devised using primary human lung cells, including normal (healthy) human bronchial epithelial cells and human lung fibroblasts (healthy and IPF).
Human lung fibroblasts derived from normal and IPF lung tissue are known to express αVβ1 integrin. The IPF-derived human lung fibroblasts were prepared for the assay by dissociation with trypsin/EDTA, and were seeded at 20,000 cells per well on 96 well plates (ACEA Bioscience E-plate View, Acea Biosciences; San Diego, CA) previously coated with […] of recombinant human LAP (R&D Systems; Minneapolis, MN) and blocked with 4% bovine serum albumin. Cell index (electrical impedance) was measured to assess cell attachment/spreading every 3 minutes for 24 hours at 37° C./5% CO2 using the xCELLigence RTCA MP Instrument (Acea Biosciences; San Diego, CA). […] In the assay, the IPF-derived human lung fibroblasts were separately incubated with: the αVβ1-selective small molecule inhibitor; the selective antibody αVβ6 inhibitor, 3G9; and Compound 5.

COL1A1 expression = assay: Precision cut lung slices from human IPF explants, COL1A1 expression; type: cell-based
Excerpt: Explanted lung tissue was obtained from human IPF subjects and inflated with agarose as described in the preceding examples. Biopsy cores were obtained from the agarose-inflated lung tissue. The biopsy cores were subjected to precision slicing to obtain several hundred μm thick. Individual slices were distributed in a multiwell culture plate and cultured for […] under control (DMSO) and test compound conditions. The viability of the slices over the course of culturing was confirmed by WST-1 assay of mitochondrial activity.
PCLS from 5-7 idiopathic pulmonary fibrosis (IPF) lung tissue samples were cultured for seven days with one of: DMSO; Compound 5 at 200 nM; nintedanib at 75 nM; pirfenidone at 50 μM; a combination of Compound 5 at 200 nM and nintedanib at 75 nM; a combination of Compound 5 at 200 nM and pirfenidone at 50 μM; or an ALK5 inhibitor at 1 μM. […] FIG. 6D is a bar graph showing relative expression of COL1A1 in precision cut lung slices (PCLS) from idiopathic pulmonary fibrosis (IPF) lung tissue upon exposure to Compound 5, clinical standard of care compounds nintedanib (Nin) and pirfenidone (Pirf), and an ALK5 inhibitor, all versus DMSO control.
PCLS from a single IPF lung tissue sample were cultured for seven days with Compound 5 at concentrations of 200 pM, 2 nM, 60 nM, 200 nM, and 1 μM, along with 0.1% DMSO control and an ALK5 inhibitor at 1 μM. […] COL1A1 expression is also graphed for the PCLS in the presence of 0.1% DMSO control, and an ALK5 inhibitor at 1 μM.

[2] = αVβ6 target engagement by [18F]FP-R01-MG-F2 PET/CT in participants with IPF; type: in vivo, human; design: Vt / Vs (Vt − VND): unit not given here; details: human, plasma; Subject C, 320 mg; read-out: Conc (Unbound Plasma Concentration)
Experimental: (§1) The aim of this Example is to assess target engagement of the disclosed compounds to αVβ6 in human participants with IPF using [^18F]FP-R01-MG-F2 PET/computerized tomography (CT) imaging.
(§2) This Example was conducted as an open-label, single-dose (60 mg, 120 mg, 240 mg or 320 mg) clinical trial evaluating αVβ6 receptor occupancy in the lungs, safety, and pharmacokinetics of Compound #5 in subjects with IPF. To date, 4 participants have completed the study. Each of these 4 participants was undergoing a pre-existing course of therapy using one of the SoC (Standard of Care) compounds, nintedanib. These participants continued their pre-existing nintedanib therapy throughout this study. Knottin tracer uptake kinetics were compared pre- and post-dose of the disclosed compound, as measured by standardized uptake values (SUVs) and parameters estimated from kinetic modeling in regions-of-interest on dynamic [^18F]FP-R01-MG-F2 PET/CT scans. […] Receptor occupancy was estimated from the output of the two-compartment model (VT, the […]) using standard equations and fitting algorithms, and corrections for VND (non-displaceable tracer binding). For example, in FIG. 10, the data points, shown as circles, are modeled by the following formula: […]
(§3) Five subjects with IPF were enrolled: Subject A received a single dose of 60 mg of the disclosed compound followed by a post-dose scan. Subject B received two doses of the disclosed compound separated by two weeks, 120 mg and 240 mg, each followed by a post-dose scan. Subject C received two doses of the disclosed compound separated by two weeks, 240 mg and 320 mg, each followed by a post-dose scan. Subject D received a single dose of 320 mg of the disclosed compound followed by a post-dose scan.

αVβ6 = molecular target: T1, αVβ6 (Homo sapiens, UniProt P06756+P18564); assay: as above; type: in vivo; design: Vt / Vs (Vt − VND): unit not given here; details: for Vs (Vt − VND): VND = 0.66
T1 construct: clinical trial evaluating αVβ6 receptor occupancy in the lungs; from tissue; host or cells: lungs of human participants with IPF (in vivo PET/CT)
T1 sequence (P06756 31-1048): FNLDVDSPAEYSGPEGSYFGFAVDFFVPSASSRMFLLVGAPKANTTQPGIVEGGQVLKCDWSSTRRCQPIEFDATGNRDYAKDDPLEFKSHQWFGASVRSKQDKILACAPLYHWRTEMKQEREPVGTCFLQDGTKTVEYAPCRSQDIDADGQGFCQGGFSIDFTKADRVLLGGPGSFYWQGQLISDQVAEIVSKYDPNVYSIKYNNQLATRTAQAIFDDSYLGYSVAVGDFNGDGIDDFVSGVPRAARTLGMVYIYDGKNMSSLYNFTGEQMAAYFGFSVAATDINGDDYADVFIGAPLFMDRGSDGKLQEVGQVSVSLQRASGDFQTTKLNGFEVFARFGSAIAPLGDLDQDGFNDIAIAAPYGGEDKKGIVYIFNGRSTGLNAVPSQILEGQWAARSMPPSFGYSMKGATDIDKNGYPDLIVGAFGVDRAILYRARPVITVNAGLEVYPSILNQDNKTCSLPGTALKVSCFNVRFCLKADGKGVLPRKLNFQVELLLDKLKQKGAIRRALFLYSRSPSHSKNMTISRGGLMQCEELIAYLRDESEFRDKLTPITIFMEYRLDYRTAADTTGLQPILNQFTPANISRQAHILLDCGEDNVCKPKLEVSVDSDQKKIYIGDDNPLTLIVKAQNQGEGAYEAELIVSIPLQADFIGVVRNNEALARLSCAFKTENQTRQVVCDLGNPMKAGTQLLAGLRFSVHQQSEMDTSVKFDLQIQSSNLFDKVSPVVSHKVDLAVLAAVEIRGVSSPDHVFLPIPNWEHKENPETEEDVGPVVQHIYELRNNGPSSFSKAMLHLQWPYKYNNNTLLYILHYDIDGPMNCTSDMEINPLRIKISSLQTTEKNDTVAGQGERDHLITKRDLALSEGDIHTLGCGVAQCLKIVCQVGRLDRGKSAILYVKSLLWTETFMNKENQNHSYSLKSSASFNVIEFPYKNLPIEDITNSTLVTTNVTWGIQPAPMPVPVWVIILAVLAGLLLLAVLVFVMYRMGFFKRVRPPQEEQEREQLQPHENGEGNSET
T1 sequence (P18564 22-788): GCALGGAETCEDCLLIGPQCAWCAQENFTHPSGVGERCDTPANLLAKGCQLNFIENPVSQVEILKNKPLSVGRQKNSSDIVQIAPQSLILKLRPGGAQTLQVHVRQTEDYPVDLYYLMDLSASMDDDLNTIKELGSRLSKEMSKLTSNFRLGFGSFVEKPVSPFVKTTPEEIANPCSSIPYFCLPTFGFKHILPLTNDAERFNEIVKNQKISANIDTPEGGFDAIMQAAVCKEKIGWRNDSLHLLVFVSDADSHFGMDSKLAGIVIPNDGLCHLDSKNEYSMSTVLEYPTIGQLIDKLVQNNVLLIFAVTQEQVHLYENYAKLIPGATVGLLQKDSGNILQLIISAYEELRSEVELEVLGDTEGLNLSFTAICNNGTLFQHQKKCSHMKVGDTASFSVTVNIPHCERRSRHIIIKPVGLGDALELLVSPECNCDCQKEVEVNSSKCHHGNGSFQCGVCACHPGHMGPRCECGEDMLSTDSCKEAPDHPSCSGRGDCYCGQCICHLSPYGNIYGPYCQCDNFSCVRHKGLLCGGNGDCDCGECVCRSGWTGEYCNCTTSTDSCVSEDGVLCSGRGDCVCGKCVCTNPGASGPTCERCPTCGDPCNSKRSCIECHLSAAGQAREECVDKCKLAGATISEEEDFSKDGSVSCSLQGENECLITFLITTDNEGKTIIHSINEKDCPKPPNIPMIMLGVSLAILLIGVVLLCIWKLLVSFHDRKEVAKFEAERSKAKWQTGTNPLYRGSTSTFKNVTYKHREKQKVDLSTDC
Experimental: as §1, §2, §3

[3] = % target engagement fit of FIG. 10

COCCN(CCCCc1ccc2c(n1)NCCC2)CC[C@H](Nc1ncnc2ccccc12)C(=O)O [Compound 5, (S)-4-((2-methoxyethyl) (4-(5,6,7,8-tetrahydro-1,8-naphthyridin-2-yl)butyl)amino)-2-(quinazolin-4-ylamino) butanoic acid]
cell adhesion in the IPF-derived lung fibroblasts [1]: substantially inhibited
reduction of COL1A1 expression (COL1A1 expression; human IPF PCLS (5-7 tissues), 7 days, Compound 5 at 200 nM alone): 43%
lung Col1a1 expression, normalized to DMSO control slices (COL1A1 expression; human IPF PCLS, 3 days, 3G9 ≥400 ng/mL, Compound 5 179 nM, ALK5 inhibitor 1 μM): substantial, statistically significant (p<0.01 vs vehicle) decrease
COL1A1 expression, dose response (COL1A1 expression; human IPF PCLS, 7 days, 200 pM to 1 μM): dose dependent reduction
reduction of COL1A1 expression (COL1A1 expression; human IPF PCLS, 7 days, Compound 5 at 200 nM in combination with nintedanib at 75 nM): 55%
reduction of COL1A1 expression (COL1A1 expression; human IPF PCLS, 7 days, Compound 5 at 200 nM in combination with pirfenidone at 50 μM): 49%
concentration at 4 h [2]: 98.5 nM
decrease of the volume of distribution of the knottin radiotracer in the lungs (αVβ6; 60 mg dose): approximately 50%
decrease of the volume of distribution of the knottin radiotracer in the lungs (αVβ6; 240 and 320 mg doses): greater than 95%
best-fit bottom value (αVβ6; [3]): 0
best-fit hillslope value (αVβ6; [3]): 1.11
best-fit top value (αVβ6; [3]): 87.4
Conc (Unbound Plasma Concentration) (αVβ6; Subject A, 60 mg): 3.66 nM
Vt (αVβ6; Subject A, post-dose 60 mg): 1.84
Vs (Vt − VND) (αVβ6; Subject A, post-dose 60 mg): 1.18
Conc (Unbound Plasma Concentration) (αVβ6; Subject B, 120 mg): 10 nM
%DeltaVt (αVβ6; Subject B, 120 mg, corrected for non-displaceable binding): 59.76%
Conc (Unbound Plasma Concentration) (αVβ6; Subject B, 240 mg): 58.3 nM
Vt (αVβ6; Subject B, post-dose 120 mg): 1.65
Vs (Vt − VND) (αVβ6; Subject B, post-dose 120 mg): 0.99
Vt (αVβ6; Subject B, post-dose 240 mg): 0.72
Vs (Vt − VND) (αVβ6; Subject B, post-dose 240 mg): 0.06
Conc (Unbound Plasma Concentration) (αVβ6; Subject C, 240 mg): 103 nM
Vt (αVβ6; Subject C, post-dose 240 mg): 0.98
Vs (Vt − VND) (αVβ6; Subject C, post-dose 240 mg): 0.32
Vt (αVβ6; Subject C, post-dose 320 mg): 0.85
Vs (Vt − VND) (αVβ6; Subject C, post-dose 320 mg): 0.19
Conc (Unbound Plasma Concentration) (αVβ6; Subject D, 320 mg): 33.6 nM
Vt (αVβ6; Subject D, post-dose 320 mg): 0.75
Vs (Vt − VND) (αVβ6; Subject D, post-dose 320 mg): 0.09
Receptor occupancy (αVβ6; at pharmacologically relevant plasma concentrations): > 95%
concentration at which the exposure response saturates (αVβ6; drug exposure at 4 hours, approaching 100% receptor occupancy): about 100 nM
EC50 (αVβ6; unbound plasma concentration vs % target engagement, 4-parameter non-linear regression (FIG. 10), read-out: best-fit EC50): 2.96 nM
